Assay results as given in patent US9552457B2, “Reprogramming effector protein interactions to correct epigenetic defects in cancer” (BRITISH COLUMBIA CANCER AGENCY BRANCH, priority 2012, dated 2017).
Read-outs that look alike come from different tables or passages of the source.

Assays:
[1] = tested on: SU-DHL-9 (MLL2 mutated) tumours; assay: SU-DHL-9 mouse xenograft model; format: in vivo; details: eight days, day nine
Protocol: NOD/SCID/γ^null (NSG) mice were bred at the local BCCRC animal facility. To establish primary tumors, male NSG mice were inoculated with 1×10^7 cells of the human diffuse histiocytic lymphoma cell line SU-DHL-9 in 50 μl PBS in the flank area. After development of s.c. tumors, mice were sacrificed and small fragments of the tumors (˜20 mg) were transplanted s.c. into the right flank of anesthetized six-ten weeks old male NSG recipient mice using 13 G trocar needles. Treatment was initiated once the tumors became palpable. Tumourlength and width was determined by caliper and tumourvolume was calculated by the modified ellipsoidal formula as […].
Compounds were diluted in a mixture of 50% DMSO and 50% polyethylene glycol 200. Eight tumor-bearing mice per group were administered by intraperitoneal injections daily over a period of eight days with either compounds at doses of 1 mg/kg or 4 mg/kg (Compound 3; NSC 127763), 4 mg or 12 mg/kg (Compound 2; NSC 304107) or the vehicle for control. Body weight was recorded every two days, tumoursize every four days and mice were monitored for any other additional adverse effects. Experimental animals were sacrificed at day nine, tumourvolumes were determined and the significance of differences was determined by Student's t-test after normalizing to the initial tumourvolume.

[2] = tested on: DoHH-2, OCI-LY3, WSU-DLCL2 (all wild-type for MLL2); assay: alamarBlue cell proliferation assay, MLL2 wild-type cell lines; format: cell-based; details: for activity against wild-type cells: in words
Protocol: Diffuse large B-cell lymphoma cell lines were maintained in RPMI medium 1640 (Life Technologies) supplemented with 10% (v/v) fetal bovine serum (Life Technologies) and 1% penicillin/streptomycin (Life Technologies) in a 37° C. incubator with 5% CO2, humidified atmosphere. Cell line DOHH2 was obtained from DSMZ. Pfeiffer was obtained from ATCC. SU-DHL-9 was obtained from Martin Dyer (University of Leicester, UK).
(§1) Compounds were initially solubilized in DMSO at a concentration of 10 mM. This compound solution was further diluted 1:100 in RPMI medium 1640 to a final concentration of 100 μM. Ninety microliters of cells maintained at a concentration of 4×10^5 cells/mL were dispensed into wells of a MICROTEST™ 96-well Assay Plate, Optilux™ (BD). Ten microliters of the 100 μM compound solution were then added to the cells resulting in a final compound concentration of 10 μM. Each compound was tested in triplicate. Ten microliters of a 1:100 DMSO to RPMI medium 1640 solution were also added to 90 μL of cells as a carrier control. Furthermore, each plate included wells containing only RPMI medium 1640 to serve as a background noise control as well as cells that were completely untreated. Compounds were incubated with the cells in a 37° C. incubator with 5% CO2, humidified atmosphere for 48 hours before being subjected to the alamarBlue® cell proliferation assay (Life Technologies). Raw fluorescent units were corrected for background noise and normalized to the carrier-treated control.
The activity of Compound 3 in vitro was investigated further using the cell lines DoHH-2, OCI-LY3, WSU-DLCL2 (all wild-type for MLL2) and SU-DHL9. In addition, the dose response for Compound 2 was investigated in cell lines mutant for MLL2 or both MLL2 and EZH2. The dose response for Compound 3 was investigated in a MLL2 mutant cell line. Methods were as described for Example 3. Cell-line WSU-DLCL2 was obtained from DSMZ and OCI-Ly lines 3 was obtained from Louis Staudt (US National Institutes of Health).

[3] = tested on: SU-DHL-9 (MLL2 homozygous indel mutant) cell line; assay: alamarBlue cell proliferation assay, SU-DHL-9 cell line; format: cell-based, human; details: for activity at 10 µM: Homo sapiens, 48 hours, normalized to carrier-treated control, SU-DHL-9, read-out: % Cell Proliferation; for activity against the MLL2 double LoF mutant cell line: SU-DHL-9, in words; for activity as worded in SAR analysis (selective toxicity against SU-DHL-9): in words, restates Tables 3 and 4
Protocol: Cell line DOHH2 was obtained from DSMZ. Pfeiffer was obtained from ATCC. SU-DHL-9 was obtained from Martin Dyer (University of Leicester, UK).
as §1, with “This compound solution was further diluted 1:100 in RPMI medium 1640 to a final concentration of 100 μM.” left out, “Ten microliters of a 1:100 DMSO to RPMI medium 1640 solution were also added to 90 μL of cells as a carrier control. Furthermore, each plate included wells containing only RPMI medium 1640 to serve as a background noise control as well as cells that were completely untreated.” left out

[4] = target: T1, GST-BPTF dual PHD finger-bromodomain (Homo sapiens, UniProt Q12830); assay: BPTF pull down assay with H3K4 methylated peptides; format: binding; details: 68 μM drug
T1 construct: The dual PHD finger-bromodomain (residues 2583-2751) from the human BPTF (gi:31322942); made in house; host or cells: E. coli BL21-AI
Protocol: Certain embodiments of the invention relate to the use of a “pull down” assay to characterize the binding of candidate compounds to the target mark. A general schema for such an assay as it applies to BPTF is shown in FIG. 4 and described in Example 5. Briefly, the GST-labeled PHD finger-bromodomain of BPTF was incubated with the candidate compound and H3K4me0, me1, me2 or me3 peptides that were coupled to streptavidin-labeled dynabeads through a biotin molecule on the peptide. After washing with an appropriate buffer, bound protein was eluted from the beads and assessed by SDS-PAGE and optionally Western blot. One skilled in the art will appreciate that this assay can be readily adapted to other readers/erasers and histone marks.
The full-length human BPTF construct was obtained from C. David Allis of the Laboratory of Chromatin Biology, Rockefeller University (Li et al., 2006, ibid). The dual PHD finger-bromodomain (residues 2583-2751) from the human BPTF (gi:31322942) was cloned into a pDEST15 vector using Gateway® cloning technology allowing for an N-terminal GST tag (Life Technologies). Over-expression of the GST-BPTF dual PHD finger-bromodomain was induced in BL21-AI™ chemically competent E. coli cells using LB medium supplemented with 1 mM IPTG and 0.2% L-arabinose for 2 hours in a 37° C. shaking incubator. GST-BPTF dual PHD finger-bromodomain was purified using Glutathione Sepharose 4B media (GE Healthcare Life Sciences) and dialyzed against PBS (Life Technologies) overnight.
The peptide pull-down experiment was performed essentially as previously described (Ruthenburg et al., 2011, Cell, 145(5):692-706.). Fifty microliters of M-280 streptavidin-coupled Dynabeads® (Life Technologies) were dispensed into 1.5 mL microtubes and washed 3×50 μL in PBS. The beads were then incubated with C-terminally biotinylated H3K4me0, me1, me2 or me3 peptides 21 amino acids long (Anaspec) rotating for 1 hour at 4° C. under saturating conditions. The beads were washed 3×100 μL in HBS-TD (10 mM Na-HEPES, 150 mM NaCl, 0.005% Tween-20, 2 mM DTT) and incubated with 6.8 μM of GST-BPTF along with either 68 μM of drug in a 1:100 DMSO to PBS solution or carrier alone rotating for 3 hours at 4° C. The beads were then washed 10×200 μL in HBS-TD. The protein was eluted using 2×LDS sample buffer (Life Technologies) and 1× reducing agent (Life Technologies) at 85° C. for 10 minutes. Samples were subjected to SDS-PAGE and bands were visualized using either SimplyBlue stain (Life Technologies) or GST antibody (Santa Cruz). Quantification of bands was made using ImageJ software.

[5] = tested on: WSU-DLCL2 human diffuse large cell lymphoma tumours; assay: WSU-DLCL2 mouse xenograft model; format: in vivo; details: evaluation at day 12
Protocol: WSU-DLCL2 tumourfragments were transplanted subcutaneously into the flank of male NSG mice. Mice were 9.0-9.3 weeks at transplantation and treatment was started when the mice were between 12.9 and 13.1 weeks. 8 mice were used per group and treatment was daily for ten days with evaluation at day 12. Tumoursize determined by caliper every four days, tumourvolume calculated by length×width^2/2.
The groups of mice were treated with vehicle (control), 1 mg/kg Compound 50 or 4 mg/kg Compound 50 by intraperitoneal injection. Vehicle was 50% DMSO/50% PEG-400.
WSU-DLCL2 tumourfragments were transplanted subcutaneously into the flank of male NSG mice. Mice were 5.3-9.4 weeks at transplantation and treatment was started when the mice were between 8.6 and 12.7 weeks. 8 mice were used in the control group and 6 mice were used in the Compound 51 treated group. Treatment was daily for ten days with evaluation at day 12. Tumoursize determined by caliper every four days, tumourvolume calculated by length×width^2/2.
The groups of mice were treated with vehicle (control) or Compound 51 by intraperitoneal injection at 4 mg/kg for the first 5 days and 2 mg/kg for the subsequent 5 days. Vehicle was 50% DMSO/50% PEG-400.

[6] = tested on: DoHH2 Cells (wildtype for EZH2, MEF2B and MLL2); assay: Cell viability of lymphoma cell lines, DoHH-2; format: cell-based; details: DoHH-2, in words
Protocol: (§2) Compound 50 was tested for its effect on the viability of three lymphoma cell lines in vitro using standard methods. The cell lines tested were: DoHH-2 (wildtype for EZH2, MEF2B and MLL2); WSU-DLCL2 (EZH2 mutation Y641F (wildtype for MEF2B and MLL2)) and DB (EZH2 mutation Y641N, the MEF2B mutation D83V and three mutations in MLL2 (two of which lead to a truncated protein after residue Q2736 and the third allele has a 1 base pair deletion at residue P480)).
(§3) Compound 51 (NSC2540) was tested for its effect on the viability of four lymphoma cell lines in vitro using standard methods. The cell lines tested were DoHH-2, WSU-DLCL2, DB and SU-DHL-9 (EZH2 wildtype, MEF2B wildtype, MLL2 indel).

[7] = tested on: WSU-DLCL2 Cells (EZH2 mutation Y641F); assay: Cell viability of lymphoma cell lines, WSU-DLCL2; format: cell-based, human; details: WSU-DLCL2, in words
Protocol: as §2, §3

[8] = tested on: DB (EZH2 mutation Y641N, MEF2B mutation D83V, three mutations in MLL2); assay: Cell viability of lymphoma cell lines, DB; format: cell-based; details: in words
Protocol: as §2

[9] = tested on: MDA-MB-231; assay: Viability of breast cancer cell lines, MDA-MB-231; format: cell-based; details: MDA-MB-231, in words
Protocol: (§4) Compounds 50 and 51 were tested for their effect on the viability of four breast cancer cell lines in vitro using standard methods. The cell lines tested were: MCF-7, MDA-MB-231, HCC202 (CRL-2316) and HCC1500 (CRL-2329).

[10] = tested on: HCC202 (CRL-2316); assay: Viability of breast cancer cell lines, HCC202; format: cell-based; details: in words
Protocol: as §4

[11] = tested on: SU-DHL-9 (EZH2 wildtype, MEF2B wildtype, MLL2 indel); assay: Cell viability of lymphoma cell lines, SU-DHL-9 (CBX2 compound); format: cell-based, human; details: SU-DHL-9, in words
Protocol: as §3

[12] = tested on: HCC1500 (CRL-2329); assay: Viability of breast cancer cell lines, HCC1500; format: cell-based; details: in words
Protocol: as §4

[13] = 6.8 μM GST-BPTF, GST antibody staining

CN(C)CCC(=O)c1ccc(Cl)cc1Cl [Compound 2, 1-(2,4-dichloro-phenyl)-3-dimethylamino-propan-1one]
median tumour growth ([1]; 12 mg/kg intraperitoneal daily, untreated control 1755%): 1305% | activity against wild-type cells [2]: inactive | activity at 10 µM ([3]; Table 3, scaffold A): < 10% | activity against the MLL2 double LoF mutant cell line [3]: active | activity as worded in SAR analysis (selective toxicity against SU-DHL-9) [3]: active | binding of H3K4me2 with BPTF [4, 13]: able to stabilize the binding | binding of H3K4me3 with BPTF [4, 13]: diminished binding

O=C1c2ccccc2C(=O)c2c(NC(=O)C(Cl)CCl)cccc21 (stereo not shown) [Compound 3, 2,3-didhloro-N-(9,10-dioxo-9,10-dihydro-anthracen-1-yl)-propionamide]
median tumour growth ([1]; 4 mg/kg intraperitoneal daily, untreated control 563%): 362% | effect on cells where MLL2 was wild-type ([2]; DoHH-2, OCI-LY3, WSU-DLCL2): no obvious effect | activity against wild-type cells [2]: inactive | activity at 10 µM ([3]; Table 4, scaffold B): < 10% | activity against the MLL2 double LoF mutant cell line [3]: active | activity as worded in SAR analysis (selective toxicity against SU-DHL-9) [3]: active | binding of H3K4me1 with BPTF [4, 13]: able to stabilize the binding | binding of H3K4me3 with BPTF [4, 13]: diminished binding | Densitometry value, H3K4me3 + compound ([4]; without compound 2545): 4227 | Densitometry value, H3K4me1 + compound ([4]; without compound 9350): 13335

O=C(CBr)c1cc(-c2ccccc2)nc2c(Cl)cc(Cl)cc12 [Compound 50]
effect on tumour volume ([5]; 1 mg/kg or 4 mg/kg intraperitoneal daily for ten days, p=0.0047 control vs 4 mg/kg): able to reduce tumour volume | effect on viability [6]: reduced the viability | effect on viability [7]: highest activity | effect on viability [8]: reduced the viability

OC(c1cc(-c2ccc(Cl)c(Cl)c2)nc2ccccc12)C1CCCCN1 (stereo not shown) [Compound 51]
effect on viability [9]: able to decrease viability | effect on tumour volume ([5]; intraperitoneal 4 mg/kg for 5 days then 2 mg/kg for 5 days, p=0.0125): able to significantly reduce tumourvolume | effect on viability [6]: able to decrease viability | effect on viability [10]: able to decrease viability | effect on viability [11]: able to decrease viability | effect on viability [7]: able to decrease viability | effect on viability [12]: able to decrease viability
